pKd: −log10 of the molar value. Where two headings read alike, the source gives them in different places.
How the values were obtained:
[1] = comparison Dy complexes; cited from earlier work
[2] = cited from earlier work
[3] = system: mouse pancreas; assay: In vivo MR imaging of glucose stimulated insulin secretion (GSIS) in the mouse pancreas; set-up: species or system C57B1/6 mice; settings: over the first 10-15 min after injection; 0.07 mmol/kg i.v., glucose IP
Description: Both phases of insulin secretion are considered essential, but the early RRP phase that is thought to be the first signal reduced during the development of type 2 diabetes (Komatsu et al., 2013; Hosker et al., 1989). In principle, both phases of insulin secretion should be detectable by MRI if enough sensor is present in the extracellular space during the time-course of these events. Biphasic GSIS was not detected by MRI in previous experiments using the first generation Zn^2+ sensors with a high affinity for Zn^2+ but we hypothesized that GSIS may be more easily detected using these second-generation agents having a much lower affinity for Zn^2+. To test this, dynamic MRI scans were collected after administering either GdL1, GdL2, GdL3 or GdL4 to C57B1/6 mice via a tail vein (0.07 mmol/kg). Nearly simultaneously with agent injection, a bolus (50 μL) of 20% w/v glucose was administered IP to stimulate secretion of insulin.
All animal experiments were performed in accordance with guidelines set by the UT Southwestern Institutional Animal Care and Use Committee (IACUC). Male C57b1/6 mice were fasted for at least 12 hours before imaging experiments. The animals were anaesthetized with isofluorane and catheterized via the tail vein. Once the animals were secured inside a 38 mm volume coil, the pancreas was positioned in the center of the 9.4 T Varian MRI scanner. Two 3D T1-weighted gradient echo pre-injection scans were obtained (TE/TR=1.69/3.34 ms, NEX8, Matrix=128×128 ×128). 70 μl of 20 mM contrast agent were injected i.v. and 50 μl of 20% w/v D-glucose were injected intraperitoneally and consecutive 3D T1-weighted scans were obtained sequentially to monitor signal enhancement in the pancreas. Identification of the pancreas was accomplished by locating the tissues surrounded by the spleen, stomach, and kidneys. A total of 3 animals were scanned per group and images were quantified and analyzed using ImageJ (National Institutes of Health, Bethesda, Md.). The signal intensities from ROIs of the tip of the pancreas were measured before, at every ˜3-4 minutes post D-glucose injection over 30 minutes total. The values were normalized to the signal intensity obtained from a water phantom placed on the mouse abdomen. Contrast enhancement was calculated using the formula
[formula] Statistical analysis was performed by comparing the mean values using a two-tailed t-test. Statistical difference was evaluated using t-scores and p-values at a 95 and 99% confidence level.

[4] = Kinetic inertness (transmetalation by Zn(II) in phosphate buffer); type: physicochemical; settings: four equivalents of Zn^2+ in phosphate buffer (pH=7), 310 K
Description: Shortly after the first confirmed clinical cases of nephrogenic systemic fibrosis (NSF), increased efforts have been made to design agents with high thermodynamic stability and kinetic inertness (Kallen et al., 2008; Reilly, 2008; Rofsky et al., 2008; Wiginton et al., 2008; Abujuden et al., 2009). The sensors shown here are very stable macrocyclic DO3A-monoamide derivatives with reported log KML>20. However, given that the agents reported here also have a high affinity for Zn^2+ ions, and Zn^2+ has been implicated as the major competing ion for transmetalation of Gd^3+ agents derived from linear polyamine ligands, the kinetic rate of Gd^3+ release is arguably the most critical factor in determining in vivo toxicity (Laurent et al., 2010). Using a previously published method (Laurent et al., 2010) consisting of incubating each agent with four equivalents of Zn^2+ in phosphate buffer (pH=7), we compared the kinetic stability of the agents reported here with the FDA-approved agent Magnevist® (GdDTPA, cf. FIG. 7).
Kinetic inertness was determined according to published procedures with minor modifications (Laurent et al., 2010; Silverio et al., 2009). Stock solutions of phosphate buffer (67 mM, pH=7.4), Gd(III) chelates (10 mM) and ZnCl2 (231 mM) were prepared first. Calculated volumes of stock solutions or water were pipetted into small glass vials to obtain a test solution of 300 μL with 30 mM phosphate, 1.5 mM Gd(III) chelate, and 6.0 mM Zn(II). Samples were measured 15 minutes after the sample temperature stabilized at 310 K. During the entire experiment, the samples inside the NMR tubes were kept in an incubator at 310 K. The T1 of the solutions was determined at 310 K and 0.47 T (20 MHz) at various time points within 7 days. As a reference, GdDTPA was analyzed under the same conditions. The R1^P relaxation rate is obtained by subtracting the diamagnetic contribution of the water relaxation (0.28 s-1) from the observed relaxation rate R1=(1/T1).

[5] = target: T1, HSA (Homo sapiens, UniProt P02768); settings: used in fitting; read-out: KD for dansylglycine (HSA); cited from earlier work
T1 construct: purchased Sigma-Aldrich

[6] = Measured at 25° C., Powell et al., 1994, 1996

T1 sequence (P02768 25-609): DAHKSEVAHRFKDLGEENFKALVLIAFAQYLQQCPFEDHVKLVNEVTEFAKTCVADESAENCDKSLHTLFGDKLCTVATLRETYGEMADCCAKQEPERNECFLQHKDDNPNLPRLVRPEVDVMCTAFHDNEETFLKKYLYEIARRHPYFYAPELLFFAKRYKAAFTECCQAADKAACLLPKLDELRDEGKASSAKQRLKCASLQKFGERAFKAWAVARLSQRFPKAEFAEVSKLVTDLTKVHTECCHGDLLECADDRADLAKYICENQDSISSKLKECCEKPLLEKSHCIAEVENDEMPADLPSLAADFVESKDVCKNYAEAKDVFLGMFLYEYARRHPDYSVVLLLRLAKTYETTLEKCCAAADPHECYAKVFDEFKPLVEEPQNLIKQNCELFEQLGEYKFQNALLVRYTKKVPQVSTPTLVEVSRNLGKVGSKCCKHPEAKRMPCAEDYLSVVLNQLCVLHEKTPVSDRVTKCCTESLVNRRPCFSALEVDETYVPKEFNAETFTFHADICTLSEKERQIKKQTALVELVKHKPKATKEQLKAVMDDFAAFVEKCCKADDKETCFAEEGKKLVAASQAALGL

Structure (SMILES) | 1/T2m^298 [1] | A1 [1] | A2 [1] | ER [1] [kcal/mol] | kex^298 [1] | ΔH^‡ [1] [kcal/mol] | further results
O=C([O-])CNC(=O)CN1CCN(CC(=O)NCC(=O)[O-])CCN(CC(=O)NCC(=O)[O-])CCN(CC(=O)NCC(=O)[O-])CC1.[Dy+3] [Dy DOTA-(gly)4] | 1000 10^4 s^−1 | −50 10^6rad s^−1K T^−1 | 0 10^9rad s^−1K^2 T^−1 | -12 | 0.09 10^6 s^−1 | 12.7 | –
O=C([O-])CN1CCN(CC(=O)[O-])CCN(CC(=O)[O-])CCN(CC(=O)[O-])CC1.[Dy+3] [DyDOTA] | 20 10^4 s^−1 | −50 10^6rad s^−1K T^−1 | 0 10^9rad s^−1K^2 T^−1 | -21.5 | 70 10^6 s^−1 | 21.5 | –
O=C([O-])CN1CCN(CC(=O)[O-])CCN(CC(=O)[O-])CCN(CC(=O)[O-])CC1.[Gd+3] [GdDOTA] | – | – | – | – | – | – | hyperfine coupling constant (AO/ℏ) [2, 6]: −3.7 ×10^6 rad/s; water exchange rate kex [2, 6]: 4.1e+06 s⁻¹; ER ([2]; reference complexes): 3.85 kcal/mol; EV ([2]; reference complexes): 0.239 kcal/mol; ΔH‡ ([2]; reference complexes): 11.9 kcal/mol; Δ^2 ([2]; reference complexes): 0.16 10^20 s^−2; τRO^298 ([2]; reference complexes): 77 ps; τV^298 ([2]; reference complexes): 11 ps
CC(O)CN1CCN(CC(=O)[O-])CCN(CC(=O)[O-])CCN(CC(=O)[O-])CC1.[Gd+3] (centres unmarked) [GdHPDO3A, reference compound] | – | – | – | – | – | – | T1-weighted MR image enhancement in pancreatic tissues and kidneys [3]: significant image enhancements
CNC[C@H](O)[C@@H](O)[C@H](O)[C@H](O)CO.CNC[C@H](O)[C@@H](O)[C@H](O)[C@H](O)CO.O=C([O-])CN(CCN(CC(=O)[O-])CC(=O)O)CCN(CC(=O)[O-])CC(=O)O.[Gd+3] [Magnevist, reference compound] | – | – | – | – | – | – | kinetic stability against transmetalation [4]: some transmetalation
CN(C)c1cccc2c(S(=O)(=O)NCC(=O)O)cccc12 [dansylglycine] | – | – | – | – | – | – | pKd [5]: 5.60

From patent US11713305B2, “Zinc sensors for in vivo imaging of beta-cell function by MRI” (The Board of Regents of the University of Texas System, priority 2017, dated 2023)
